From patent US20230257350A1, “COMPOUNDS AND METHODS OF PROMOTING OLIGODENDROCYTE PRECURSOR DIFFERENTIATION” (The Cleveland Clinic Foundation, priority 2020, published 2023)
Blank lines part the entries; values can stand above or below the compound they belong to.

Tests used:
[1] = test system: oligodendrocyte progenitor cells (OPC); assay: 96-well OPC screening platform: oligodendrocyte generation from primary OPCs; type: cell-based, mouse; conditions: for EC50: Mus musculus, Oligodendrocyte progenitor cell
Description: 1) an optimized method to produce primary culture of highly pure mouse oligodendrocyte progenitor cells (OPC); and
2) an algorithm to identify and quantify oligodendrocytes in 96-well format.
(§1) Briefly, the high-throughput small molecule screen included a primary screening where small drug-like organic compounds ([…]) are added to cells seeded on a 96-well plate an incubated. The cells are then visually screened for oligodendrocyte precursor morphology changes. In a secondary screening, differentiation induced by selected compounds was further validated by fluorescence microscopy. Increased fluorescence in treated oligodendrocyte cells generated from a PIp-EGFP transgenic mouse was indicative of cell maturation. Further oligodendrocyte precursor maturation in response to selected compounds was assessed by induction of myelin protein expression as determined by immunocytochemistry and western blot.
Using the 96-well OPC-screening platform, a CNS-bias library of 20,000 drug-like small molecule compounds (Cambridge Co., San Diego, Calif.) was screened, using DMSO as a negative control and T3 (triiodothyronine) as a positive control. Initial screening was at 10 μM, and 390 primary hits were identified. Further testing confirmed that 57 compounds produced at least 50% response of T3.

[2] = test system: cuprizone mouse model of demyelination/remyelination; assay: Cuprizone/rapamycin demyelination and remyelination model; type: in vivo, mice; conditions: i.p. daily 6 weeks, 10 mg/kg, vs control
Description: 2016; 283(Pt A): 330-340, which is incorporated herein by reference in its entirety. […] At the end of the treatment period, mice were perfused and different tissues analyzed for remyelination. In cortex and hippocampus, PLP antibody staining was used to assess remyelination. In corpus callosum, the number of myelinated axons in semi-thin (1 μm) Epon sections was quantified. […] This in vivo animal data further validates a strategy of using cell-based phenotypic screening to identify remyelination compounds.

[3] = Solubility; type: physicochemical
[4] = MTT assay (viability); type: cell-based; conditions: up to 30 μM
[5] = test system: OPCs (PLP-EGFP); assay: Immunostaining of oligodendrocyte markers PLP and MBP in treated OPCs; type: cell-based, mouse; conditions: 4 days treatment
Description: as §1
Finally, similar activation of oligodendrocyte markers was observed when wild-type OPCs were treated with the “hit” compounds, eliminating the possibility that expression of the EGFP construct affected the results.

[6] = Preliminary pharmacokinetic analysis, i.p. injection, LC/MS/MS of plasma and brain; type: in vivo; conditions: i.p. 10 mg/kg, mice

EC50 ([1]; Table 1, OPC differentiation): 540 nM
Structure (SMILES): Cc1cc(Cl)cc(Cl)c1OCCOCCN1CCN(C)CC1 [CN265]

EC50 ([1]; Table 2, OPC differentiation): 42 nM
Structure (SMILES): Cc1cc(Cl)cc(C)c1OCCCCN1CCC[C@H](C)C1 [CN329]

EC50 ([1]; Table 2, OPC differentiation): 78 nM
Structure (SMILES): Cc1cc(Cl)cc(C)c1OCCCCN1CCCCC1 [CN478]

EC50 ([1]; Table 2, OPC differentiation): 270 nM
Structure (SMILES): Cc1cc(Cl)cc(C)c1OCCCCN1CCOCC1 [CN644]

EC50 ([1]; Table 1, OPC differentiation): 193 nM
Structure (SMILES): Cc1cc(Cl)ccc1OCCOCCN1CCC(C)CC1 [CN918]

The next lines start with the compound.

Structure (SMILES): CC1CCC(N2CCN(Cc3cccc(Br)c3)CC2)CC1 (centres unmarked) [CN007]
EC50 [1]: 40 nM

Structure (SMILES): CC1CCN(CCOCCOc2c(Cl)cc(Cl)cc2Cl)CC1 [CN045]
remyelination in corpus callosum (number of myelinated axons) ([2]; p<0.01): significantly increased remyelination
remyelination in cortex (PLP antibody staining) ([2]; p<0.01): significantly increased remyelination
remyelination in hippocampus (PLP antibody staining) ([2]; p<0.05): significantly increased remyelination
solubility [3]: > 500 µM
viability [4]: > 80%
EC50 ([1]; Table 1, OPC differentiation): 40 nM
increase in the percentage of oligodendrocytes compared with DMSO controls ([1]; dose-response, FIG. 3B): ~4 fold
efficacy compared with benztropine, clemastine or T3 ([1]; same OPC assay, multiple concentrations, FIG. 2): almost twice the efficacy
co-labeling of EGFP+ cells by PLP and MBP antibodies [5]: All EGFP+ cells were co-labeled by PLP and MBP antibodies
Kp ([6]; C57BU6J, mouse, ip, brain homogenate vs. plasma, read-out: brain/plasma ratio): 0.8
time of peak concentration following injection [6]: ~2 h

Structure (SMILES): CCc1cc(OCCOCCN2CCC(C)CC2)ccc1Cl [CN049]
EC50 ([1]; Table 1, OPC differentiation): 165 nM

Structure (SMILES): Fc1cc(Cl)ccc1OC[C@@H]1CCCN2CCCC[C@H]12 [CN566]
EC50 ([1]; Table 2, OPC differentiation): 340 nM

Structure (SMILES): Cc1ccc(OCCOCCN2CCC(C)CC2)c(Cl)c1 [CN570]
EC50 ([1]; Table 1, OPC differentiation): 200 nM
